Test results: patent US11578080B2, “Thienopyrimidones” (Boehringer Ingelheim International GmbH, priority 2019, dated 2023)

Legend:
[1] = Assay C: Hepatocyte clearance; type: in vitro ADME, human; conditions: hepatocyte suspension, 1 μM test compound
Procedure: Assay C: Hepatocyte Clearance
The metabolic degradation of the test compound is assayed in a hepatocyte suspension. Hepatocytes (cryopreserved) are incubated in. Dulbecco's modified eagle medium (supplemented with 3.5 μg glucagon/500 mL, 2.5 mg insulin/500 mL and 3.75 mg/500 mL hydrocortison) containing 5% or 50% species serum.
Following a 30 min preincubation in an incubator (37° C., 10% CO2) 5 μl of test compound solution (80 μM; from 2 mM in DMSO stock solution diluted 1:25 with medium) are added into 395 μl hepatocyte suspension (cell density in the range 0.25-5 Mio cells/mL depending on the species, typically 1 Mio cells/mL; final concentration of test compound 1 μM, final DMSO concentration 0.05%).
The cells are incubated for six hours (incubator, orbital shaker) and samples (25 μl) are taken at 0, 0.5, 1, 2, 4 and 6 hours. Samples are transferred into acetonitrile and pelleted by centrifugation (5 min). The supernatant is transferred to a new 96-deepwell plate, evaporated under nitrogen and resuspended.
Decline of parent compound is analyzed by HPLC-MS/MS
CLint is calculated as follows CL_[…]=Dose/AUC=(C0/CD)/(AUD+clast/k)×1000/60. CO: initial concentration in the incubation [μM], CD: cell density of vital cells [10e6 cells/mL], AUD: area under the data [μM×h], clast: concentration of last data point [μM], k: slope of the regression line for parent decline [h-1].
The calculated in vitro hepatic intrinsic clearance can be scaled up to the intrinsic in vivo hepatic Clearance and used to predict hepatic in vivo blood clearance (CL) by the use of a liver model (well stirred model). CL_[…]_INVIVO [ml/min/kg]=(CL_[…] [μL/min/10e6 cells]×hepatocellularity [10e6 cells/g liver]×liver factor [g/kg body weight])/1000 CL [ml/min/kg]=CL_[…]_INVIVO [ml/min/kg]×hepatic blood flow [ml/min/kg]/(CL_[…]_INVIVO [ml/min/kg]+hepatic blood flow [ml/min/kg]) Qh [%]=CL [ml/min/kg]/hepatic blood flow [ml/min/kg])
(§1) Hepatocellularity, human: 120×10e6 cells/g liver
(§2) Liver factor, human: 25.7 g/kg bodyweight
(§3) Blood flow, human: 21 ml/(min×kg)

[2] = Assay B: Microsomal clearance; type: in vitro ADME, human; conditions: pooled liver microsomes, 1 μM test compound, 37° C.
Procedure: Assay B: Microsomal Clearance:
The metabolic degradation of the test compound is assayed at 37° C. with pooled liver microsomes. The final incubation volume of 100 μl per time point contains TRIS buffer pH 7.6 at RT (0.1 M), magnesium chloride (5 mM), microsomal protein (1 mg/ml) and the test compound at a final concentration of 1 μM.
Following a short preincubation period at 37° C., the reactions are initiated by addition of beta-nicotinamide adenine dinucleotide phosphate, reduced form (NADPH, 1 mM) and terminated by transferring an aliquot into solvent after different time points (0, 5, 15, 30, 60 min). Additionally, the NADPH-independent degradation is monitored in incubations without NADPH, terminated at the last time point. The [%] remaining test compound after NADPH independent incubation is reflected by the parameter c(control) (metabolic stability). The quenched incubations are pelleted by centrifugation (10000 g, 5 min).
An aliquot of the supernatant is assayed by LC-MS/MS for the amount of parent compound. The half-life (t½ INVITRO) is determined by the slope of the semilogarithmic plot of the concentration-time profile.
The intrinsic clearance (CL_[…]) is calculated by considering the amount of protein in the incubation: CL_[…] [μl/min/mg protein]=(Ln 2/(half-life [min]*protein content [mg/ml]))*1000 CL_[…]_INVIVO [ml/min/kg]=(CL_[…] [μL/min/mg protein]×MPPGL [mg protein/g liver]×liver factor [g/kg body weight])/1000 Qh [%]=CL [ml/min/kg]/hepatic blood flow [ml/min/kg])
as §1, §2, §3

human TRPA1 ion channel = human TRPA1 ion channel (Homo sapiens (Human), UniProt O75762); experiment: Assay A: TRPA1 assay (FLIPR calcium, AITC agonism, HEK293 over-expressing human TRPA1); type: cell-based; conditions: HEK293 over-expressing human TRPA1, AITC 10 μM, FLIPRtetra; read-out: hTRPA1 IC50
Procedure: A human HEK293 cell line over-expressing the human TRPA1 ion channel (Perkin Elmer, Product No. AX-004-PCL) was used as a test system for compound efficacy and potency. Compound activity was determined by measuring the effect of compounds on intracellular calcium concentration induced by AITC (Allylisothiocyanat) agonism in a FLIPRtetra system (Molecular Devices).
The cells were obtained as frozen cells in cryo-vials and stored until use at −150° C. Cells were grown in culture medium (MEM/EBSS medium with 10% FCS and 0.4 mg/ML Geneticin). […] For sub-culturing cells were detached from flasks by Versene. At the day before the assay, cells were detached, washed twice with medium (MEM/EBSS medium with 10% FCS) and 20000 cells in 20 μl/well were seeded to Poly D-Lysin biocoated 384-well plates (black, clear bottom, Cat. 356697) from Corning. Plates were incubated for 24 hours at 37° C./5% CO2 before use in the assay.
The test compounds were dissolved in 100% DMSO at a concentration of 10 mM and in a first step diluted in DMSO to a concentration of 5 mM, followed by serial dilution steps in 100% DMSO. Dilution factor and number of dilution steps may vary according to needs. Typically 8 different concentrations by 1:5 dilutions were prepared, further intermediate dilutions (1:20) of the substances were carried out with HBSS/HEPES buffer (1×HEPES, Cat. 14065 from Gibco, 20 mM HEPES, Cat. 83264 from SIGMA, 0.1% BSA Cat. 11926 from Invitrogen, pH 7,4
At the assay day cells were washed 3× with assay puffer, 20 μL buffer remained in the wells after washing. 10 μL Ca6 kit (Cat. R8191 MolecularDevices) loading buffer in HBSS/HEPES was added to the cells and the plates were incubated with lid for 120 minutes at […]. 10 μL of compound or controls in HBSS/HEPES buffer/5% DMSO from the intermediate dilution plate were carefully added to the wells. […] Finally 10 μL of the agonist AITC 50 μM dissolved in HBSS/HEPES buffer/0.05% DMSO (final concentration 10 μM) was added to the wells followed by an additional read on the FLIPRtetra device for 10 minutes. The area under the signal curve (AUC) after AITC addition was used for IC50/% inhibition calculations
Data Evaluation and Calculation:
Each assay microtiter plate contained wells with vehicle (1% DMSO) controls instead of compound as controls for AITC induced luminescence (100% CTL; high controls) and wells with vehicle controls without AITC as controls for non-specific changes in luminescence (0% CTL; low controls).
The analysis of the data was performed by the calculation of the area under signal curve of the individual wells. Based on this values the % value for the measurement of each substance concentration was calculated (AUC(sample)−AUC(low))*100/(AUC(high)−AUC(low)) using MegaLab software (in house development). The IC50 values were calculated from the % control values using MegaLab software. Calculation: [y=(a−d)/(1+(x/c)^b)+d], a=low value, d=high value; x=cone M; c=IC50 M; b=hill; y=% ctrl

[3] = Assay D: Metabolism in human hepatocytes in vitro; type: in vitro ADME; conditions: primary human hepatocytes, 10 μM
Procedure: Assay D: Metabolism in Human Hepatocytes In Vitro
The metabolic pathway of a test compound is investigated using primary human hepatocytes in suspension.
Following a 30 min preincubation in a cell culture incubator (37° C., 10% CO2), test compound solution is spiked into the hepatocyte suspension to obtain a final cell density of 1.0*10^6 to 4.0*10^6 cells/ml (depending on the metabolic turnover rate of the compound observed with primary human hepatocytes), a final test compound concentration of 10 μM, and a final DMSO concentration of 0.05%.
The cells are incubated for six hours in a cell culture incubator on a horizontal shaker, and samples are removed from the incubation after 0, 0.5, 1, 2, 4 or 6 hours, depending on the metabolic turnover rate. Samples are quenched with acetonitrile and pelleted by centrifugation. The supernatant is transferred to a 96-deepwell plate, evaporated under nitrogen and resuspended prior to bioanalysis by liquid chromatography-high resolution mass spectrometry for identification of putative metabolites.

Sequence of human TRPA1 ion channel (O75762 whole entry): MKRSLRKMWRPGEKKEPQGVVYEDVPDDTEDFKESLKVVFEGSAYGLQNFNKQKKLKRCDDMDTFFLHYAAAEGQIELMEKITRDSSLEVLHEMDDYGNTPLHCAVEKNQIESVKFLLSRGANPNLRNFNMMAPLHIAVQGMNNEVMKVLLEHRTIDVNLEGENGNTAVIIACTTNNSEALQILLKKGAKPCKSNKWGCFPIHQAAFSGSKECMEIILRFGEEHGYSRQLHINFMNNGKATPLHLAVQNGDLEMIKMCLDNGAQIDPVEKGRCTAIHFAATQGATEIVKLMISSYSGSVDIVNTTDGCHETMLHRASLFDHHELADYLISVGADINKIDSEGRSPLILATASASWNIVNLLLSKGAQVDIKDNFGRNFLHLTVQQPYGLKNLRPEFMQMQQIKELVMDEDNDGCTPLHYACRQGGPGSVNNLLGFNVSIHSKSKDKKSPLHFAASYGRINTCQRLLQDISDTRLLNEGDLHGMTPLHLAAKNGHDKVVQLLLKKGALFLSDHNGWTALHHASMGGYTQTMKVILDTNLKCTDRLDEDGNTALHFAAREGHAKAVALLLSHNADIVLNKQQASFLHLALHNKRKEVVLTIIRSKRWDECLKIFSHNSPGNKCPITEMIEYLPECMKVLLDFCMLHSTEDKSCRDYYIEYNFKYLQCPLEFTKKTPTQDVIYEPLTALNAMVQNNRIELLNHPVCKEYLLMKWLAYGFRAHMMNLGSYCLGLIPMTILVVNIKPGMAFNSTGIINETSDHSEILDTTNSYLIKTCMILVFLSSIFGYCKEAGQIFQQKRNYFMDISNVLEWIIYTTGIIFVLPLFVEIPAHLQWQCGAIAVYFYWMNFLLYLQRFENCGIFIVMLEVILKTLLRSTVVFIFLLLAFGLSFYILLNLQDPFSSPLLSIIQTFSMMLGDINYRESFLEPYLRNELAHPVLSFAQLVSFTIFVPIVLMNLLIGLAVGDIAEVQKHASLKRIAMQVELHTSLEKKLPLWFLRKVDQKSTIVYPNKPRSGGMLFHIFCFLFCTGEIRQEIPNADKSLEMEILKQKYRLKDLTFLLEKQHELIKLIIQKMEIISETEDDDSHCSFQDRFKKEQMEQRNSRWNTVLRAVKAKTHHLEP

## O=C1NCCc2c1sc1ncn(Cc3nnn(C[C@H](O)c4ccc(Cl)cc4)n3)c(=O)c21 [Example 6]
[1]
  human Hepatocytes [% Qh]: 7 % Qh
[2]
  human LM [% Qh]: <23 % Qh
Human TRPA1 ion channel
  IC50: 11 nM
[3]; Metabolite M1
  Major metabolite observed: Mechanism: Oxygenation
[3]; Metabolite M2
  Major metabolite observed: Mechanism: Dehydrogenation
[3]; Metabolite M3
  Major metabolite observed: Mechanism: Glucuronidation
